The values that follow come from patent US8697730B2, “5-lipoxygenase activating protein (FLAP) inhibitor” (Panmira Pharmaceuticals, LLC, priority 2007, dated 2014).

Data set [1] has as its system whole blood ionophore-stimulated leukotriene LTB4. Kind of data set: Phase 1 study, whole blood ionophore-stimulated LTB4. Type of data set: in vivo, human. The following applies: clinical trial summary. How it is done: (§1) Pharmacodynamics: Whole blood ionophore-stimulated leukotriene LTB4 and urinary LTE4 production are assayed by ELISA and mass spectrometry, respectively.
(§2) Obtain pre-dose fasting blood samples for hematology determinations. Obtain pre-dose fasting blood samples for serum chemistry determinations. Obtain pre-dose blood samples (5 mL EDTA and 4 mL heparinized) for baseline PK and LTB4. Collect ‘spot’ urine prior to study drug administration for baseline (pre-dose) LTE4. Administer study drug. […] Collect blood samples (2 mL heparinized) for LTB4 at 0.5, 1, 2, 3, 4, 6, 8, and 12 hours. Collect urine for LTE4 for the following separate intervals: 0-3, 3-6, 6-9, and 9-12 hours. For twice daily dosing group (if conducted): administer study drug 12 hours±30 minutes after prior dose, preceded by ≧2 hours fast.
(§3) Obtain pre-dose fasting blood samples for hematology determinations. Obtain pre-dose fasting blood samples for serum chemistry determinations. […] Collect blood samples (2 mL heparinized) for LTB4 at 24 hours after the first study drug administration; 4 mL blood will be collected at this time point in the Single Dose Phase. Collect ‘spot’ urine sample for LTE4 at 24 and 36 hours after first study drug administration.
(§4) Obtain pre-dose blood samples (5 mL EDTA and 2 mL heparinized) for PK and LTB4. Collect pre-dose urine for LTE4. Administer study drug (last dose of drug). […] Collect blood samples (2 mL heparinized) for LTB4 at 0.5, 1, 2, 3, 4, 6, 8, and 12 hours. Collect urine for LTE4 for the following separate intervals: 0-3, 3-6, 6-9, and 9-12 hours after study drug administration.
(§5) Record vital signs 24 hours after Day 11 study drug administration. […] Collect blood sample (4 mL heparinized) for LTB4 at 24 hours after Day 11 study drug administration. Collect ‘spot’ urine sample for LTE4 at 24 hours after Day 11 study drug administration.
(§6) Whole blood ionophore-stimulated leukotriene LTB4 and urinary LTE4 production were assayed by ELISA and mass spectrometry, respectively.

The subject of the next data set is urinary LTE4 production. Kind of data set: Phase 1 study, urinary LTE4. Type of data set: in vivo, human. To be noted: clinical trial summary. How it is done: as §1, §2, §3, §4, §5, §6
The next data set deals with CYP2C9. To be noted: tested at 10 μM; diclofenac substrate.
Data set [2] deals with allergen-induced early and late phases of lung-volume decline. The following applies: clinical trials / allergen-challenge studies; cited from earlier work.
Data set [3] can be described thus: Aqueous solubility determination (thermodynamic solubility). To be noted: for Appearance of mixture after equilibration for 24 hours: suspended in 0.25 mL of water, 25° C.; for pH of saturated solution / Concentration of filtrate (as mg/ml of free base): water, equilibrated at 25° C. for 24 hours; for Concentration of filtrate (as mg/ml of free base): HPLC.
Data set [4] can be described thus: Gravimetric Vapor Sorption (GVS). The following applies: 25° C.; for hygroscopicity in words: GVS; for total weight change: between 0% RH and 90% RH.
Data set [5] in a line: Storage stability of polymorphs. The class given is physicochemical. The following applies: for change after 1 week storage (crystallinity / x-ray powder diffraction pattern, colour): 1 week at 40° C. and 75% RH.
The nature of another data set: pH solubility profile. The class given is physicochemical. The following applies: about 25° C.
The subject of a further data set is chronic asthma. The following applies: chronic asthma studies; cited from earlier work.
The mark [6] stands for this setting: Cycle 1, Scan 1, Adsorption, % RH load to 40.
The mark [7] stands for this setting: Cycle 1, Scan 2, Adsorption, % RH 0 to 40.
Setting [8] is: Cycle 1, Scan 2, Adsorption, % RH 40 to 90.
Setting [9] is: Cycle 1, Scan 2, Desorption, % RH 90 to 0.
The mark [10] stands for this setting: Cycle 2, Scan 3, Adsorption, % RH 40 to 90.
[11] abbreviates: Cycle 2, Scan 4, Adsorption, % RH 0 to 40.
Setting [12] is: Cycle 2, Scan 4, Desorption, % RH 90 to 0.

Molecules are shown by their SMILES. Some results are limits rather than exact numbers.

Take `COc1ccc(-c2ccc(Cn3c(CC(C)(C)C(=O)O)c(SC(C)(C)C)c4cc(OCc5ccccn5)ccc43)cc2)cn1`: in data set [1], the “effect on LTB4 levels in humans, in words” value is listed as “lowers”. Also, the “effect on LTE4 levels in humans, in words” value in the data set with urinary LTE4 production is reported as “lowers”.

As to `COc1ccc(-c2ccc(Cn3c(CC(C)(C)C(=O)O)c(SC(C)(C)C)c4cc(OCc5ccccn5)ccc43)cc2)cn1` [3-[5-(pyridin-2-ylmethoxy)-3-(2-methyl-2-propylthio)-1-[4-(2], the “CYP2C9 induction in words” value in the data set with CYP2C9 was “not an inducer”.

As for `O=C(O)[C@@H](c1ccc(OCc2ccc3ccccc3n2)cc1)C1CCCC1` [BAYX-1005, (R)-2-[4-(quinolin-2-yl-methoxy)phenyl]-2-cyclopentyl acetic acid], the efficacy in words entry in data set [2] is “shown efficacy”.

For the compound `COc1ccc(-c2ccc(Cn3c(CC(C)(C)C(=O)O)c(SC(C)(C)C)c4cc(OCc5ccccn5)ccc43)cc2)cn1` [Crystalline Free Acid], in [3], the “Appearance of mixture after equilibration for 24 hours” value (“Appearance of mixture” below) is on record as “Suspension”. Besides, the “pH of saturated solution” value in data set [3] is reported as 7.88. Moreover, in data set [3], the “Concentration of filtrate (as mg/ml of free base)” value was found to be 0.0019 mg/mL. Moreover, the “stability to changes in humidity (XRPD after GVS experiment)” value (shortened to “stability to changes in humidity”) in [4] is given as “stable to changes in humidity”. Also, the “% weight change” value is given as 0.00% in [4] (Cycle 1, Scan 1, Adsorption, % RH load to 40, listed as crystalline 3-[5-(pyridin-2-ylmethoxy)-3-(2-methyl-2-propylthio)-1-[4-(2-methoxy)); 0.07% in data set [4] (Cycle 1, Scan 2, Adsorption, % RH 0 to 40, listed as crystalline 3-[5-(pyridin-2-ylmethoxy)-3-(2-methyl-2-propylthio)-1-[4-(2-methoxy)); 0.34% in data set [4] (Cycle 1, Scan 2, Adsorption, % RH 40 to 90, listed as crystalline 3-[5-(pyridin-2-ylmethoxy)-3-(2-methyl-2-propylthio)-1-[4-(2-methoxy)); −0.42% in [4] (Cycle 1, Scan 2, Desorption, % RH 90 to 0, listed as crystalline 3-[5-(pyridin-2-ylmethoxy)-3-(2-methyl-2-propylthio)-1-[4-(2-methoxy)); 0.29% in [4] (Cycle 2, Scan 3, Adsorption, % RH 40 to 90, listed as crystalline 3-[5-(pyridin-2-ylmethoxy)-3-(2-methyl-2-propylthio)-1-[4-(2-methoxy)); 0.08% in [4] (Cycle 2, Scan 4, Adsorption, % RH 0 to 40, listed as crystalline 3-[5-(pyridin-2-ylmethoxy)-3-(2-methyl-2-propylthio)-1-[4-(2-methoxy)). In addition, the “% weight change” value in data set [4] (Cycle 2, Scan 4, Desorption, % RH 90 to 0, listed as crystalline 3-[5-(pyridin-2-ylmethoxy)-3-(2-methyl-2-propylthio)-1-[4-(2-methoxy)) is −0.40%. In addition, the hygroscopicity in words entry in data set [4] (listed as Crystalline 3-[5-(pyrid-2-ylmethoxy)-3-(2-methyl-2-propylthio)-1-[4-(2-methoxypy)) was “not hygroscopic”.

For `COc1ccc(-c2ccc(Cn3c(CC(C)(C)C(=O)O)c(SC(C)(C)C)c4cc(OCc5ccccn5)ccc43)cc2)cn1` [Form B], the “Appearance of mixture” value in [3] is recorded as “Fine Suspension”. Besides, the “pH of saturated solution” value in data set [3] worked out at 9.95. In addition, in [3], the “Concentration of filtrate (as mg/ml of free base)” value was found to be 5.4 mg/mL. Further, the “stability to changes in humidity” value in data set [4] is recorded as “stable to changes in humidity”. In addition, the “% weight change” value in data set [4] (setting [6]) is −1.54%; in data set [4] (setting [7]), 3.73%; in [4] (setting [8]) it was 20.92%; in [4] (setting [9]), −25.51%; in data set [4] (setting [10]), 20.72%; in data set [4] (setting [11]), 3.66%. The “% weight change” value in data set [4] (setting [12]) is −24.45%. Further, in data set [4], the hygroscopicity in words entry was “very hygroscopic”. In addition, in [4], the total weight change is 26%. Moreover, the “change after 1 week storage (crystallinity / x-ray powder diffraction pattern, colour)” value in [5] was “loses its crystallinity and the colour changes to yellow”. Further, in data set [5] (conditions not stated), the “physical and chemical stability” value is “physically and chemically stable”. The “Concentration (mg/mL)” value is “about 0.690 mg/mL” in “pH solubility profile” (pH about 1.1); “about 0.0594 mg/mL” in “pH solubility profile” (pH about 4.9); “about 0.00573 mg/mL” in the data set “pH solubility profile” (pH about 8.8); “about 9.80 mg/mL” in “pH solubility profile” (pH about 9.2); “about 53.1 mg/mL” in the data set “pH solubility profile” (pH about 9.8). The “Concentration” value in “pH solubility profile” (pH about 10.4) was more than 70000 µg/mL.

With `COc1ccc(-c2ccc(Cn3c(CC(C)(C)C(=O)O)c(SC(C)(C)C)c4cc(OCc5ccccn5)ccc43)cc2)cn1` [Form C], in data set [3], the “aqueous solubility compared between forms” value was “more soluble than Form B and the crystalline free acid”. In addition, in [3], the “Appearance of mixture” value is “Fine Suspension”. Besides, the “pH of saturated solution” value in data set [3] is listed as 10.05. Besides, the “Concentration of filtrate (as mg/ml of free base)” value in data set [3] is more than 10 mg/mL. The “stability to changes in humidity” value in data set [4] was “stable to changes in humidity”. Besides, the “% weight change” value is listed as −0.37% in [4] (setting [6]); 1.98% in [4] (setting [7]); 13.83% in data set [4] (setting [8]); −16.23% in data set [4] (setting [9]); 14.52% in data set [4] (setting [10]); 2.01% in data set [4] (setting [11]). Further, the “% weight change” value in [4] (setting [12]) was −16.51%. Moreover, the hygroscopicity in words entry in data set [4] is given as “hygroscopic”. This compound also returned a total weight change in data set [4] of 16%. The “change after 1 week storage (crystallinity / x-ray powder diffraction pattern, colour)” value in [5] is listed as “No change”. The “physical and chemical stability” value in [5] (5° C., 25° C./60% RH and 40° C./75% RH for at least two months) was “physically and chemically stable”.

As for `CC(C)(C)Sc1c(CC(C)(C)C(=O)O)n(Cc2ccc(Cl)cc2)c2ccc(OCc3ccc4ccccc4n3)cc12` [MK-0591, 3-[1-(4-chlorobenzyl)-3-(tert-butylthio)-5-(quinolin-2-ylmethoxy)indol-2-yl]-2,2-dimethyl propanoic acid], the efficacy in words result (with chronic asthma; in data set [2]) was “shown efficacy” in each case.

`CC(C)c1ccc2c(c1)c(SC(C)(C)C)c(CC(C)(C)C(=O)O)n2Cc1ccc(Cl)cc1` [MK-866, 3-[1-(4-chlorobenzyl)-3-(tert-butylthio)-5-(isopropyl)-indol-2-yl]-2,2-dimethyl propanoic acid]: the efficacy in words result in [2] was “shown efficacy”.
